US9249129B2, “Morpholino substituted urea derivatives as mTOR inhibitors” (CELLZOME LIMITED, priority 2010, dated 2016)

Key:
Assay in all cases: kinobeads assay with mass spectrometry detection of kinases (kinase selectivity profile)
Format in all cases: binding
kinases (kinome) [1] = molecular target: T1, kinases (kinome) (Homo sapiens, UniProt P07947); details: YES (TK), IPI00013981
T1 construct: determined in kinobeads assays with mass spectrometry detection of kinases as described previously; endogenous in cells; host or cells: cell lysate
Source text: (§1) The protein kinase complement of the human genome (the kinome) was described previously (Manning et al., 2002. Science 298(5600):1912-1934). Sequence accession numbers are defined by the International Protein Index (IPI) (Kersey et al., 2004. Proteomics 4(7):1985-1988).

kinases (kinome) [2] = molecular target: T2, kinases (kinome) (Homo sapiens, UniProt P12931); details: SRC (TK), IPI00328867
T2 construct: determined in kinobeads assays with mass spectrometry detection of kinases as described previously; endogenous in cells; host or cells: cell lysate
Source text: as §1

kinases (kinome) [3] = molecular target: T3, kinases (kinome) (Homo sapiens, UniProt P19784); details: CK2a2 (Other), IPI00020602
T3 construct: determined in kinobeads assays with mass spectrometry detection of kinases as described previously; endogenous in cells; host or cells: cell lysate
Source text: as §1

kinases (kinome) [4] = molecular target: T4, kinases (kinome) (Homo sapiens, UniProt P30291); details: Wee1 (Other), IPI00025830
T4 construct: determined in kinobeads assays with mass spectrometry detection of kinases as described previously; endogenous in cells; host or cells: cell lysate
Source text: as §1

kinases (kinome) [5] = molecular target: T5, kinases (kinome) (Homo sapiens, UniProt P50613); details: CDK7 (CMGC), IPI00000685
T5 construct: determined in kinobeads assays with mass spectrometry detection of kinases as described previously; endogenous in cells; host or cells: cell lysate
Source text: as §1

kinases (kinome) [6] = molecular target: T6, kinases (kinome) (Homo sapiens, UniProt Q00535); details: CDK5 (CMGC), IPI00023530
T6 construct: determined in kinobeads assays with mass spectrometry detection of kinases as described previously; endogenous in cells; host or cells: cell lysate
Source text: as §1

kinases (kinome) [7] = molecular target: T7, kinases (kinome) (Homo sapiens, UniProt Q13557); details: CaMK2d (CAMK), IPI00828081
T7 construct: determined in kinobeads assays with mass spectrometry detection of kinases as described previously; endogenous in cells; host or cells: cell lysate
Source text: as §1

kinases (kinome) [8] = molecular target: T8, kinases (kinome) (Homo sapiens, UniProt Q16539); details: p38a (CMGC), IPI00221141
T8 construct: determined in kinobeads assays with mass spectrometry detection of kinases as described previously; endogenous in cells; host or cells: cell lysate
Source text: as §1

kinases (kinome) [9] = molecular target: T9, kinases (kinome) (Homo sapiens, UniProt Q92918); details: HPK1 (STE), IPI00020258
T9 construct: determined in kinobeads assays with mass spectrometry detection of kinases as described previously; endogenous in cells; host or cells: cell lysate
Source text: as §1

kinases (kinome) [10] = molecular target: T10, kinases (kinome) (Homo sapiens, UniProt Q96GD4); details: AurB (Other), IPI00796914
T10 construct: determined in kinobeads assays with mass spectrometry detection of kinases as described previously; endogenous in cells; host or cells: cell lysate
Source text: as §1

kinases (kinome) [11] = molecular target: T11, kinases (kinome) (Homo sapiens, UniProt Q9BVS4); details: RIOK2 (Atypical), IPI00306406
T11 construct: determined in kinobeads assays with mass spectrometry detection of kinases as described previously; endogenous in cells; host or cells: cell lysate
Source text: as §1

kinases (kinome) [12] = molecular target: T12, kinases (kinome) (Homo sapiens, UniProt Q9H2K8); details: TAO3 (STE), IPI00410485
T12 construct: determined in kinobeads assays with mass spectrometry detection of kinases as described previously; endogenous in cells; host or cells: cell lysate
T12 sequence (Q9H2K8 1-898): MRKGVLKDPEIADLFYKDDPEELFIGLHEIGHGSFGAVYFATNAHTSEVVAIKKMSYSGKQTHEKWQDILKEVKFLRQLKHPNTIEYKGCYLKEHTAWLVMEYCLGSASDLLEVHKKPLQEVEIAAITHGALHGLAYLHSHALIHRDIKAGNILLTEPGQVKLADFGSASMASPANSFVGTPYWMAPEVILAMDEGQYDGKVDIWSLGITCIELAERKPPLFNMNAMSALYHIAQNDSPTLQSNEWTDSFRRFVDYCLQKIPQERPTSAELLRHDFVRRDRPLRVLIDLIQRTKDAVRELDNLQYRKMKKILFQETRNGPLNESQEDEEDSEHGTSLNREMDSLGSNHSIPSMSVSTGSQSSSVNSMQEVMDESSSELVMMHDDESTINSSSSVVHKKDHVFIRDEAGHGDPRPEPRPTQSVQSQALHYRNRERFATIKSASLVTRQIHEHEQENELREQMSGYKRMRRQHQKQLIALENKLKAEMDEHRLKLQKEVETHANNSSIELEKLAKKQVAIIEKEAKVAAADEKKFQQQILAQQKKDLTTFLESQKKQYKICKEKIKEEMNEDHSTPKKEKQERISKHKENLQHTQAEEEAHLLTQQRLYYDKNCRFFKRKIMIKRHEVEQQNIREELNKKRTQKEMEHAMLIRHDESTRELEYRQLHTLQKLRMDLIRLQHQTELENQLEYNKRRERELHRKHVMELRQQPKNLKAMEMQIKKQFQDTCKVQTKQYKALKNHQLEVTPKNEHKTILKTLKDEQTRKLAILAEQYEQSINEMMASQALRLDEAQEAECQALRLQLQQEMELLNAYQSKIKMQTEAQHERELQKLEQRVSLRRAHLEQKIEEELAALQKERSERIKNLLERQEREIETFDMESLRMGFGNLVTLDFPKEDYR
Source text: as §1

kinases (kinome) [13] = molecular target: T13, kinases (kinome) (Homo sapiens, UniProt Q9UBE8); details: NLK (CMGC), IPI00008237
T13 construct: determined in kinobeads assays with mass spectrometry detection of kinases as described previously; endogenous in cells; host or cells: cell lysate
T13 sequence (Q9UBE8 1-527): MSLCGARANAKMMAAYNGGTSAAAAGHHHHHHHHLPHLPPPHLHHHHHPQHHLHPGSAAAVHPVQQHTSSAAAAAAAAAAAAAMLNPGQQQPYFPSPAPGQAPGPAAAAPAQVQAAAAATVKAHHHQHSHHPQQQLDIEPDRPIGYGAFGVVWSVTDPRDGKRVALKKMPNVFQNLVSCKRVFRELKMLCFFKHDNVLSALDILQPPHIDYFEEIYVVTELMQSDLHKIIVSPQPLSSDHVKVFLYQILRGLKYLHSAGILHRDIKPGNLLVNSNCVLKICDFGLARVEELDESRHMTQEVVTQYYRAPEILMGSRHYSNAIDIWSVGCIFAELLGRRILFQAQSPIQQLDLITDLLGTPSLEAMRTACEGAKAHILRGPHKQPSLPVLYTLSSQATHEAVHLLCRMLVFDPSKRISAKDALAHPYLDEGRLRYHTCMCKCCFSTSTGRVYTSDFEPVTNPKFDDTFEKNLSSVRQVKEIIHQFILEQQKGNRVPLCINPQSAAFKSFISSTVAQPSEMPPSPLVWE
Source text: as §1

kinases (kinome) [14] = molecular target: T14, kinases (kinome) (Homo sapiens, UniProt Q9UBF8); details: PIK4Cb (Lipid Kinase), IPI00641770
T14 construct: determined in kinobeads assays with mass spectrometry detection of kinases as described previously; endogenous in cells; host or cells: cell lysate
Source text: as §1

Measured: IC50

T7 sequence (Q13557 whole entry): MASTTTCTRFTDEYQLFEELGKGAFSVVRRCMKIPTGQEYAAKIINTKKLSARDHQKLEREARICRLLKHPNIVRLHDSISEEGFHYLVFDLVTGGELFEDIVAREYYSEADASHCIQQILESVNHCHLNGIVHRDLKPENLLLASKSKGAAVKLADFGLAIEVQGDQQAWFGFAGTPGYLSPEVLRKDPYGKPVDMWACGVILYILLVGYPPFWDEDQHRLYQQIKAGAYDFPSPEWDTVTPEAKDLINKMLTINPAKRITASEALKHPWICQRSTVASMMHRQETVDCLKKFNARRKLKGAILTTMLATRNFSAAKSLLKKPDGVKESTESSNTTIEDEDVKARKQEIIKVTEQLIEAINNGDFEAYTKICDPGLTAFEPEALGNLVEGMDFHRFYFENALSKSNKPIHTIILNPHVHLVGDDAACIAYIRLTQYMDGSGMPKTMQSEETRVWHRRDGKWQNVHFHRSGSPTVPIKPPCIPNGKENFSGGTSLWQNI
T10 sequence (Q96GD4 whole entry): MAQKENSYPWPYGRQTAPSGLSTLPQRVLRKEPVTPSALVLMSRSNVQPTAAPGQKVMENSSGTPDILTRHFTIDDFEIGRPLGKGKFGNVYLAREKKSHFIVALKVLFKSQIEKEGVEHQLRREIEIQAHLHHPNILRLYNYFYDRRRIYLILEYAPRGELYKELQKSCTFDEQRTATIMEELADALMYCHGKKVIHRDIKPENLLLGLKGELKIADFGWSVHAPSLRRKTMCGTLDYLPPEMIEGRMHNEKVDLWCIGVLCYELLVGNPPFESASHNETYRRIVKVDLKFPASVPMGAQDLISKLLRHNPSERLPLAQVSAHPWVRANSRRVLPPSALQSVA
T1 sequence (P07947 whole entry): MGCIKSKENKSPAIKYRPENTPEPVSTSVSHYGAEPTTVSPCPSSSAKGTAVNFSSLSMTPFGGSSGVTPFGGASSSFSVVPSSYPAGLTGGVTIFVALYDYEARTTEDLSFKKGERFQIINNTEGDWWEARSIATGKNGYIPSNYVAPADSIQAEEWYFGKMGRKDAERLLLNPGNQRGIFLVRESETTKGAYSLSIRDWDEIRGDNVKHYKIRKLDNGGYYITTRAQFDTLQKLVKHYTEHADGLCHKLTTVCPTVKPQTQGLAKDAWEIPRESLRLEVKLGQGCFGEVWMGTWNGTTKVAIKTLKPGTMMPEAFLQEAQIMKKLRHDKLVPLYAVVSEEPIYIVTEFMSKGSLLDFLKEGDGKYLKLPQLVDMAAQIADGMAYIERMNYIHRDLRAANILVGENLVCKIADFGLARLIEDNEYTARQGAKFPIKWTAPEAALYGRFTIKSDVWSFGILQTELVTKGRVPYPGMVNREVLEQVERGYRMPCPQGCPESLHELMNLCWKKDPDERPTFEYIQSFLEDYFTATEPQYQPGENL
T9 sequence (Q92918 whole entry): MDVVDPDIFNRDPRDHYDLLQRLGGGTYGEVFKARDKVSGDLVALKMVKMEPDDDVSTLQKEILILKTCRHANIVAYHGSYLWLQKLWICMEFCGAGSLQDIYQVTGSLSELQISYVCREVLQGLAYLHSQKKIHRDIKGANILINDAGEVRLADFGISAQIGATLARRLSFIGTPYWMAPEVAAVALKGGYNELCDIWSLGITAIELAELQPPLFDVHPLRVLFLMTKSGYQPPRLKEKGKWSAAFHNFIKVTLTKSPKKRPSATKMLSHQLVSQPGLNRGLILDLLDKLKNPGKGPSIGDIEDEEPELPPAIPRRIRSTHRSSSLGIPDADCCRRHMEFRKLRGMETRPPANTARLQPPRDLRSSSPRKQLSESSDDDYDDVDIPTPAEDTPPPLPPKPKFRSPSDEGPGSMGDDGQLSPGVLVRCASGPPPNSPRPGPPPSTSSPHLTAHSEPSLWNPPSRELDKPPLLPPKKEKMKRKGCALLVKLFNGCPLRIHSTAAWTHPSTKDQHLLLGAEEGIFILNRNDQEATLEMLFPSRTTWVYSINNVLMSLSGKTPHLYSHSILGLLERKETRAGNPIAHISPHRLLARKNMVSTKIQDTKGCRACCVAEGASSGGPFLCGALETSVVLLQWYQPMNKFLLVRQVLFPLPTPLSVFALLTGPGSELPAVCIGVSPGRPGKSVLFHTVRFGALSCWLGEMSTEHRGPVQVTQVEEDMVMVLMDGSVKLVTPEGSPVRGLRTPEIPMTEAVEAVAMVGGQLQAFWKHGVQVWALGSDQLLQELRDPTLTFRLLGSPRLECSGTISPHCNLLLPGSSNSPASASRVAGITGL
T3 sequence (P19784 whole entry): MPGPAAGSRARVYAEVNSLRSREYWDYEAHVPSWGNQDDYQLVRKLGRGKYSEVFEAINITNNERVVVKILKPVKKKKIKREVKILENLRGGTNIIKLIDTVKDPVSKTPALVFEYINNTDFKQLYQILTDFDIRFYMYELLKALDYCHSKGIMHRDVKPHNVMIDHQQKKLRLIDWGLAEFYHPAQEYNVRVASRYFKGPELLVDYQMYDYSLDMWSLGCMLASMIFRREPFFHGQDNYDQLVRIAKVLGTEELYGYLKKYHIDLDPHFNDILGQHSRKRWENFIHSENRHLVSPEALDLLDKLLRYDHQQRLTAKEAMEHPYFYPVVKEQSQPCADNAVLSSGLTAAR
T4 sequence (P30291 whole entry): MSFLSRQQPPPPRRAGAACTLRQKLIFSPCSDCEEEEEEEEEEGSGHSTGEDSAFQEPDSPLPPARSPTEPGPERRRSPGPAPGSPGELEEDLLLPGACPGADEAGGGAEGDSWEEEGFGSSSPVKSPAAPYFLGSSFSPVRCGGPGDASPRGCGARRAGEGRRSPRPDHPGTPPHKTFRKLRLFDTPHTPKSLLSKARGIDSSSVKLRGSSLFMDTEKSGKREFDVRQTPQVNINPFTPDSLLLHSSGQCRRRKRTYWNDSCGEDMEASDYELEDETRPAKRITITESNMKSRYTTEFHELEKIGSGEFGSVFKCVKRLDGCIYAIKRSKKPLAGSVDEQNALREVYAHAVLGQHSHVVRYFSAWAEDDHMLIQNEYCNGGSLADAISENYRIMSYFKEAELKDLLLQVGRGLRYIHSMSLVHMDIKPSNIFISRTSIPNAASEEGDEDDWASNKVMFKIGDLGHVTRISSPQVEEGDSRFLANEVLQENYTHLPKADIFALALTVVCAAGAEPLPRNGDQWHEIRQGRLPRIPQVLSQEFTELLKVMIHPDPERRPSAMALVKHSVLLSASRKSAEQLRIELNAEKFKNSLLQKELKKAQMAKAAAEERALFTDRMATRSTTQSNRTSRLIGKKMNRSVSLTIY
T14 sequence (Q9UBF8 whole entry): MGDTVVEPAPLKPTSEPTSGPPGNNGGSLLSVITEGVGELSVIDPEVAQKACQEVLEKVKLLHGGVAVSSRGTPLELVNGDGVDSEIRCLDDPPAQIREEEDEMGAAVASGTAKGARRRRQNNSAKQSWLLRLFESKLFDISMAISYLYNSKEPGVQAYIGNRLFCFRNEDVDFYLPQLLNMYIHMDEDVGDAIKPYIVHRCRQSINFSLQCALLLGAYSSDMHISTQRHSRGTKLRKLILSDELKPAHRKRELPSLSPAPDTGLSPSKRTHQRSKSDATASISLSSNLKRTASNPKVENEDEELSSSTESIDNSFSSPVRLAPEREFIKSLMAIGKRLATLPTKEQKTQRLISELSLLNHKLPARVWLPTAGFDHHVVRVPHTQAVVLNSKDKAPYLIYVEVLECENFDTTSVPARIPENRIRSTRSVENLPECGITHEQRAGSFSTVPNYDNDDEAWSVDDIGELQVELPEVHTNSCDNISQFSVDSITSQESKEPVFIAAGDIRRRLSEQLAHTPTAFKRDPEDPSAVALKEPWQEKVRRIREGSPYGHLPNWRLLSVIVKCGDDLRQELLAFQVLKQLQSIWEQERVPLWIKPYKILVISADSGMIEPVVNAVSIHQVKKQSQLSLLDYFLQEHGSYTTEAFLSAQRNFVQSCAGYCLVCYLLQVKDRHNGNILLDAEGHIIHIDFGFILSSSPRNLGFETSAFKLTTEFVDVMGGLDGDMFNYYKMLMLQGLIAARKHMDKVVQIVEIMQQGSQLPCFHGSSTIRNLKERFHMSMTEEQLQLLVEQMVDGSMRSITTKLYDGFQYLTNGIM
T5 sequence (P50613 whole entry): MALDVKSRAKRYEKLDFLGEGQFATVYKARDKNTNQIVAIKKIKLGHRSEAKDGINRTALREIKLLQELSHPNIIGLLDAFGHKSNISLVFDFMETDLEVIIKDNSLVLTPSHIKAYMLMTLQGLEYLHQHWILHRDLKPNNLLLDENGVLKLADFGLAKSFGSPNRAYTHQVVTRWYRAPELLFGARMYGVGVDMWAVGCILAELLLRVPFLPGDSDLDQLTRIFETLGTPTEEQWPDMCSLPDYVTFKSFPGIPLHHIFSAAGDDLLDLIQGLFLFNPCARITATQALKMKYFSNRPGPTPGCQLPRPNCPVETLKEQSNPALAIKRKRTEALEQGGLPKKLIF
T8 sequence (Q16539 whole entry): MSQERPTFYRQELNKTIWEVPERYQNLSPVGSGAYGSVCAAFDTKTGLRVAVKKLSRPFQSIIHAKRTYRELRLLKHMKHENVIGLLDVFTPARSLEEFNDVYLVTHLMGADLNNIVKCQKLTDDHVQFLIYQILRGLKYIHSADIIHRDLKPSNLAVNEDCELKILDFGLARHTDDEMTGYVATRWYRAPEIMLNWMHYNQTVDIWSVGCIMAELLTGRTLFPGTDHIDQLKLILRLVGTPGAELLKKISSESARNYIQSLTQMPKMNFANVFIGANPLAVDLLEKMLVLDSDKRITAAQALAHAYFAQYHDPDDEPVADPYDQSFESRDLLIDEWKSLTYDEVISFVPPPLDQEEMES

C[C@H]1COCCN1c1nc(-c2ccc(NC(=O)NC3CC3)cc2)cc(-c2cccnc2S(C)(=O)=O)n1 [Example 46, (S)-1-cyclopropyl-3-(4-(2-(3-methylmorpholino)-6-(2-(methylsulfonyl)pyridin-3-yl)pyrimidin-4-yl)phenyl)urea]
> 10 µM: all assays above

C[C@H]1COCCN1c1nc(-c2ccc(NC(=O)NC3CC3)cc2)cc(-c2ccccc2S(C)(=O)=O)n1 [Example 4, (S)-1-cyclopropyl-3-(4-(2-(3-methylmorpholino)-6-(2-(methylsulfonyl)phenyl)pyrimidin-4-yl)phenyl)urea]
> 10 µM: all assays above

C[C@H]1COCCN1c1nc(-c2ccc(NC(=O)N[C@H]3CCC[C@@H]3O)cc2)cc(-c2cc(F)ccc2S(C)(=O)=O)n1 [Example 76, 1-(4-(6-(5-fluoro-2-(methylsulfonyl)phenyl)-2-((S)-3-methylmorpholino)pyrimidin-4-yl)phenyl)-3-((1S,2S)-2-hydroxycyclopentyl)urea]
> 10 µM: all assays above

CCNC(=O)Nc1ccc(-c2cc(-c3ccccc3C#N)nc(N3CCOC[C@@H]3C)n2)cc1 [Example 8, (S)-1-(4-(6-(2-cyanophenyl)-2-(3-methylmorpholino)pyrimidin-4-yl)phenyl)-3-ethylurea]
> 10 µM: all assays above

C[C@H]1COCCN1c1cc(-c2ccccc2S(C)(=O)=O)nc(-c2ccc(NC(=O)NC3CC3)cc2)n1 [Example 6, (S)-1-cyclopropyl-3-(4-(4-(3-methylmorpholino)-6-(2-(methylsulfonyl)phenyl)pyrimidin-2-yl)phenyl)urea]
> 10 µM: all assays above

C[C@H]1COCCN1c1cc(-c2ccccn2)nc(-c2ccc(NC(=O)NCCO)cc2)n1 [Example 43, (S)-1-(2-hydroxyethyl)-3-(4-(4-(3-methylmorpholino)-6-(pyridin-2-yl)pyrimidin-2-yl)phenyl)urea]
> 10 µM: all assays above

C[C@H]1COCCN1c1nc(-c2ccc(NC(=O)NC3CC3)cc2)cc(-c2cc(F)ccc2S(C)(=O)=O)n1 [Example 40, (S)-1-cyclopropyl-3-(4-(6-(5-fluoro-2-(methylsulfonyl)phenyl)-2-(3-methylmorpholino)pyrimidin-4-yl)phenyl)urea]
> 10 µM: all assays above
